Assay results reported in patent publication US20260226031A1, “NOVEL COMPOUNDS” (NRG THERAPEUTICS LTD., priority 2023, published 2026).

Tests used:
mPTP [1] = assay: mPTP activity (Ca2+ retention) assay in isolated rat liver mitochondria; assay type: biochemical; settings: for mPTP Rat liver pIC50*: isolated rat liver mitochondria, Fluo5N fluorescence at 10 min after CaCl2 (75 μM) bolus, DMSO 0%, 5 μM cyclosporin A 100% inhibition
Text: Pharmacological inhibition or modulation of the mPTP can be measured in well characterised ‘Ca^2+ retention’ assays performed in isolated mitochondria. In vitro, isolated mitochondria rapidly sequester exogenous Ca^2+ until the intramitochondrial Ca^2+ concentration reaches the threshold for mPTP activation. Once the pore is activated, mitochondrial integrity is compromised and the stored Ca^2+ is released. The distribution of Ca^2+ between extra- and intra-mitochondrial compartments can be measured in real time with the use of membrane-impermeant Ca^2+ sensitive fluorescent dyes. Depending on the configuration of the assay, inhibition or modulation of the mPTP either delays the opening of the pore or increases the concentration of Ca^2+ required to induce mPTP opening.
MPTP activity was measured in mitochondria freshly isolated from female Sprague Dawley (250 to 300 gram) rat livers using the following method. Cervical dislocation was performed on the rat. The liver was then perfused in-situ with ~40 ml cold Dulbecco's Phosphate Buffered Saline (DPBS) prior to dissection and transferred into 30 ml Isolation Buffer (250 mM Sucrose, 10 mM KCl, 1 mM EGTA, 1 mM EDTA, 25 mM HEPES, adjusted to pH 7.5 with 1M NaOH). Each lobe of the liver was then removed from the buffer, minced using tweezers and a scalpel into ~5 mm pieces then transferred into a 50 ml Potterton dounce homogenization tube on ice containing 30 ml ice-cold centrifugation buffer (300 mM Trehalose, 25 mM HEPES, 1 mM EGTA, 1 mM EDTA, 10 mM KCl, adjusted to pH 7.5 with 1M NaOH and supplemented with 0.1% bovine serum albumin (BSA) and complete protease inhibitor cocktail (one tablet of inhibitor per 50 mls of buffer). Homogenisation was carried out using a Teflon® pestle at 1800 rpm. The slurry was centrifuged at 800 g for 10 min at 4° C., then the supernatant centrifuged at 10,000 g for 10 min. The pellet was washed once with FLIPR assay buffer (75 mM Mannitol, 25 mM Sucrose, 5 mM Potassium Phosphate Monobasic, 20 mM Tris base, 100 mM KCl, 0.1% BSA adjusted to pH 7.4 with 5M HCl) centrifuged again, then resuspended in FLIPR assay buffer to a concentration of 8.8 mg/ml protein.
Tested compounds (10 mM stock in DMSO) were serially diluted in DMSO in half log steps to generate 10 test concentrations (final concentrations in assay 30 μM to 1 nM). An intermediate dilution of 5 μl DMSO samples into 247 μl FLIPR assay buffer was carried out prior to transfer of 5 μl into duplicate wells of a 384 well polypropylene assay plate. Control wells were 0.5% (v/v) DMSO and 5 μM cyclosporin A.
A stock mitochondria/Fluo5N assay solution was prepared in 5.6 ml FLIPR assay buffer (at RT) supplemented with succinate disodium salt (10 mM), rotenone (1 μM), Fluo5N pentapotassium salt (2 μM) and 1 ml mitochondria suspension, then transferred (15 μl) into the assay plate containing test compounds and incubated for 10 min at RT. Assay plates were processed for fluorescence detection on either a FLIPR Tetra (Molecular Devices) or CLARIOstar (BMG) plate reader. For kinetic fluorescence detection on the FLIPR, dye fluorescence was measured every 3 sec for a total of 10 min. After 12 sec, a 2.5 μl bolus of CaCl2 (75 μM) was added from a source plate containing 675 μM CaCl2 in FLIPR assay buffer. Alternatively, the 2.5 μl addition of CaCl2 was performed using a Viaflow 384, plates were incubated at RT for 10 min, and dye fluorescence measured after 10 min on the CLARIOstar plate reader. pIC50 values for tested compounds were calculated using the fluorescence value collected at the 10 min timepoint on either plate reader, with % inhibition calculated using the DMSO control and cyclosporin A values as 0 and 100% respectively.

mPTP [2] = assay: mPTP activity (Ca2+ retention) assay in isolated rat brain mitochondria; assay type: biochemical; settings: isolated rat brain mitochondria; Fluo5N fluorescence at 10 min after Ca2+ (75 μM) bolus
Description: MPTP activity was measured in brain mitochondria freshly isolated from female Sprague Dawley (250 to 300 gram) rats. Anaesthetised rats were perfused in-situ with ~40 ml cold Dulbecco's Phosphate Buffered Saline (DPBS), then brains dissected and transferred into 30 ml Isolation Buffer (225 mM mannitol, 75 mM sucrose, 1 mM EGTA, adjusted to pH 7.4 with 1M NaOH). The brain was minced using tweezers and a scalpel into ~5 mm pieces then transferred into a 50 ml Potterton Dounce homogenization tube on ice containing 10 ml ice-cold isolation buffer (as above with addition of Complete Protease inhibitor; 1 tablet per 50 ml buffer). Homogenisation was carried out using a Teflon® pestle at 1800 rpm. The slurry was centrifuged at 2000 g for 10 min at 4° C., then the supernatant centrifuged at 12,000 g for 9 min. The pellet was resuspended with a dounce homogeniser in isolation buffer as above but with the addition of 0.02% digitonin, centrifuged at 12,000 g for 11 min and finally resuspended in 5 ml modified isolation buffer (as above but with EGTA reduced to 0.1 mM).
Test compounds were prepared in 384 well polypropylene assay plates as described above for the liver mitochondria assay. A stock mitochondria/Fluo5N assay solution was prepared in 5.6 ml assay buffer (120 mM mannitol, 40 mM MOPS, 5 mM KH2PO4, 60 mM KCl, 10 mM pyruvate, 2 mM malate, 2 mM MgCl2, 20 μM ADP, 1.26 μM oligomycin A, adjusted to pH 7.4) supplemented with Fluo5N pentapotassium salt (2 μM) and 1 ml mitochondria suspension, then transferred (15 μl) into the assay plate containing test compounds and incubated for 10 min at RT. Assay plates were then transferred to a FLIPR Tetra plate reader (Molecular Devices). Dye fluorescence was then measured every 3 sec for a total of 10 min.

Compound | mPTP Rat liver pIC50* (mPTP [1]) | mPTP Rat brain pIC50 (mPTP [2]) | activity in the rat liver mitochondria assay (ranking in words) (mPTP [1]; among tested Example compounds)
O=C(c1cncc(=O)[nH]1)N1CC(c2ccc(F)cc2F)C2(CCC2)C1 (single isomer, unassigned) [Example 37a, 6-(8-(2,4-difluorophenyl)-6-azaspiro[3.4]octane-6-carbonyl)pyrazin-2(1H)-one] | 5.99 | 7.28 | 
O=C(c1noc(=O)[nH]1)N1CC(c2ccc(F)cc2F)C2(CCC2)C1 (single isomer, unassigned) [Example 48a, 3-(8-(2,4-difluorophenyl)-6-azaspiro[3.4]octane-6-carbonyl)-1,2,4-oxadiazol-5(4H)-one] | 5.53 | 6.47 | 
O=C(c1cc(O)no1)N1CC(c2cccc(F)c2)C2(CCC2)C1 (single isomer, unassigned) [Example 38a, (8-(3-fluorophenyl)-6-azaspiro[3.4]octan-6-yl)(3-hydroxyisoxazol-5-yl)methanone] | 6.41 | 7.34 | 
O=C(c1nccc(=O)[nH]1)N1CC(c2ccccc2)C2(CCC2)C1 (racemic) [Example 18, rac-2-{8-phenyl-6-azaspiro[3.4]octane-6-carbonyl}-3H-pyrimidin-4-one] | 5.52 | 6.56 | 
O=C(c1noc(=O)[nH]1)N1CC(c2ccc(F)cc2F)C2(CCC2)C1 (single isomer, unassigned) [Example 48b, 3-(8-(2,4-difluorophenyl)-6-azaspiro[3.4]octane-6-carbonyl)-1,2,4-oxadiazol-5(4H)-one] | <4.52 | <4.52 | 
CC1(C)CN(C(=O)c2cncc(=O)[nH]2)CC1c1ccccc1 (single isomer, unassigned) [Example 10b, 6-(3,3-dimethyl-4-phenylpyrrolidine-1-carbonyl)pyrazin-2(1H)-one] | 5.19 | 6.07 | 
O=C(c1cncc(=O)[nH]1)N1CC(c2cccc(Cl)c2)C2(CCC2)C1 (single isomer, unassigned) [Example 31b, 6-(8-(3-chlorophenyl)-6-azaspiro[3.4]octane-6-carbonyl)pyrazin-2(1H)-one] | 4.58 | <4.52 | 
O=C(c1cncc(=O)[nH]1)N1CC(c2ccccc2Cl)C2(CCC2)C1 (single isomer, unassigned) [Example 30a, 6-(8-(2-chlorophenyl)-6-azaspiro[3.4]octane-6-carbonyl)pyrazin-2(1H)-one] | 5.28 | 6.92 | 
O=C(c1noc(=O)[nH]1)N1CC(c2ccc(F)cc2)C2(CCC2)C1 (single isomer, unassigned) [Example 41a, 3-(8-(4-fluorophenyl)-6-azaspiro[3.4]octane-6-carbonyl)-1,2,4-oxadiazol-5(4H)-one] | 5.95 | 7.19 | 
O=C(c1cncc(O)n1)N1CC(c2ccccc2)C2(CCC2)C1 (stereo not shown) [Example 2, (6-hydroxypyrazin-2-yl)(8-phenyl-6-azaspiro[3.4]octan-6-yl)methanone] | 5.80 | 6.90 | 
O=C(c1cncc(=O)[nH]1)N1CC(c2cc(Cl)ccc2F)C2(CCC2)C1 (single isomer, unassigned) [Example 32a] | 5.87 | 7.19 | 
O=C(c1cncc(=O)[nH]1)N1CC(c2ccc(F)c(F)c2)C2(CCC2)C1 (single isomer, unassigned) [Example 45b, 6-(8-(3,4-difluorophenyl)-6-azaspiro[3.4]octane-6-carbonyl)pyrazin-2(1H)-one] | <4.52 | 6.78 | 
O=C(c1cncc(=O)[nH]1)N1CC(c2ccc(F)c(F)c2)C2(CCC2)C1 (single isomer, unassigned) [Example 45a, 6-(8-(3,4-difluorophenyl)-6-azaspiro[3.4]octane-6-carbonyl)pyrazin-2(1H)-one] | 6.15 | 7.45 | 
O=C(c1noc(=O)[nH]1)N1CC(c2ccccc2)C2(CCC2)C1 (single isomer, unassigned) [Example 34a, 3-(8-phenyl-6-azaspiro[3.4]octane-6-carbonyl)-1,2,4-oxadiazol-5(4H)-one] | 5.57 | 7.37 | 
O=C(c1cncc(=O)[nH]1)N1CC(c2ccc(F)cc2)C2(CCC2)C1 (single isomer, unassigned) [Example 35a, 6-(8-(4-fluorophenyl)-6-azaspiro[3.4]octane-6-carbonyl)pyrazin-2(1H)-one] | 6.82 | 7.5 | highest activity
Cn1nc(C(=O)N2C[C@@H](c3ccccc3)C3(CCC3)C2)[nH]c1=O (single isomer, unassigned) [Example 5b] | 5.33 | 6.55 | 
O=C(c1cc(O)no1)N1CC(c2ccccc2)C2(CCC2)C1 (single isomer, unassigned) [Example 23a, (3-hydroxyisoxazol-5-yl)(8-phenyl-6-azaspiro[3.4]octan-6-yl)methanone] | 6.17 | 7.22 | 
O=C(c1cncc(=O)[nH]1)N1CC(c2ccccc2F)C2(CCC2)C1 (stereo not shown) [Example 7, 6-(8-(2-fluorophenyl)-6-azaspiro[3.4]octane-6-carbonyl)pyrazin-2(1H)-one] | 5.95 | 7.11 | 
O=C(c1nccc(=O)[nH]1)N1CC(c2ccccc2)C2(CC(F)C2)C1 (single isomer, unassigned) [Example 25a, 2-(2-fluoro-8-phenyl-6-azaspiro[3.4]octane-6-carbonyl)pyrimidin-4(3H)-one] | 6.33 | 6.88 | 
O=C(c1cc(O)no1)N1CC(c2ccc(F)c(F)c2)C2(CCC2)C1 (single isomer, unassigned) [Example 46b, (8-(3,4-difluorophenyl)-6-azaspiro[3.4]octan-6-yl)(3-hydroxyisoxazol-5-yl)methanone] | <4.52 | 7.03 | 
O=C(c1nccc(=O)[nH]1)N1CC(c2ccccc2)C2(CCC2)C1 (single isomer, unassigned) [Example 21b, 2-[8-phenyl-6-azaspiro[3.4]octane-6-carbonyl]-3H-pyrimidin-4-one] | <4.52 | <4.52 | 
